Reference: patent publication US8324264B1, “Inhibitors of bacterial biofilms and related methods” (Sequoia Sciences, Inc., priority 2011, dated 2012)
≈ marks a conversion by molar mass, not a printed value.

Key:
P. aeruginosa biofilms = assay: Biofilm growth assay (spreading biofilm on semi-solid agar), P. aeruginosa; assay type: cell-based; settings: biofilm growth assay, overnight 37° C., vs negative controls, Tables 1-5; for IC85: Pseudomonas aeruginosa, read-out: P. aeruginosa: concentration that reduces the area of the spreading biofilm by greater than or equal to 85%
Outline: (§1)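 Compound added to semi-solid agar: M8 with 0.2% glucose, 100 μM CaCl2, 1 mM MgSO4, 0.5% Casamino acids (P. aeruginosa) or LB with 0.6% agar, 0.5% glucose (E. coli). Center-inoculated with 5 μL overnight culture, incubated overnight at 37 °C; value is concentration (μg/ml) reducing spreading area ≥85% versus negative controls.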

E. coli biofilms = assay: Biofilm growth assay (spreading biofilm on semi-solid agar), E. coli; assay type: cell-based; settings: biofilm growth assay, overnight 37° C., vs negative controls, Tables 1-5; for IC85: Escherichia coli, read-out: E. coli: concentration that reduces the area of the spreading biofilm by greater than or equal to 85%
Outline: as §1

SMILES | P. aeruginosa: concentration that reduces the area of the spreading biofilm by greater than or equal to 85% (P. aeruginosa biofilms) | E. coli: concentration that reduces the area of the spreading biofilm by greater than or equal to 85% (E. coli biofilms) | IC85 (P. aeruginosa biofilms) | IC85 (E. coli biofilms)
CC1(C)CC[C@]2(C(=O)O)CC[C@]3(C)C(=C(c4cccc(F)c4)CC4[C@@]5(C)Cc6c(n[nH]c6N)C(C)(C)[C@@H]5CC[C@]43C)[C@@H]2C1 (stereo partly drawn) [Example 17, (4aS,6aS,6bR,8aR,13aR,15bS)-12-Amino-15-(3-fluorophenyl)-2,2,6a,6b,9,9,13a-heptamethyl-2,3,4,4a,5,6,6a,6b,7,8,8a,9,11,13,13a,13b,14,15b-octadecahydro-1H-chryseno[1,2-f]indazole-4-a-carboxylic acid] | 0.5 µg/mL | >2 µg/mL | – | –
CC1(C)CC[C@]2(C(=O)O)CC[C@]3(C)C(=C(c4cccc5[nH]ccc45)CC4[C@@]5(C)Cc6c(n[nH]c6N)C(C)(C)C5CC[C@]43C)C2C1 (stereo partly drawn) [Example 48, (4aS,6aS,6bR,13aR)-12-Amino-15-(1H-indol-4-yl)-2,2,6a,6b,9,9,13a-heptamethyl-2,3,4,4a,5,6,6a,6b,7,8,8a,9,11,13,13a,13b,14,15b-octadecahydro-1H-chryseno[1,2-f]indazole-4-a-carboxylic acid] | 0.5 µg/mL | 1 µg/mL | – | –
CC1(C)CC[C@]2(C(=O)O)CC[C@]3(C)C(=C(Br)CC4[C@@]5(C)Cc6c(n[nH]c6N)C(C)(C)[C@@H]5CC[C@]43C)[C@@H]2C1 (stereo partly drawn) [Example 25, (4aS,6aS,6bR,8aR,13aR,15bR)-12-Amino-15-bromo-2,2,6a,6b,9,9,13a-heptamethyl-2,3,4,4a,5,6,6a,6b,7,8,8a,9,11,13,13a,13b,14,15b-octadecahydro-1H-chryseno[1,2-f]indazole-4-a-carboxylic acid] | 0.5 µg/mL | >2 µg/mL | – | –
C[C@H]1[C@H](C)CC[C@]2(C(=O)O)CC[C@]3(C)C(=CCC4[C@@]5(C)Cc6c(n[nH]c6N)C(C)(C)[C@@H]5CC[C@]43C)[C@H]12 (stereo partly drawn) [Example 2, (4aS,6aS,6bR,13aR)-12-Amino-2,2,6a,6b,9,9,13a-heptamethyl-2,3,4,4a,5,6,6a,6b,7,8,8a,9,11,13,13a,13b,14,15b-octadecahydro-1H-chryseno[1,2-f]indazole-4-a-carboxylic acid] | – | – | 0.5 µg/mL (≈ 1.01 µM) | 1 µg/mL (≈ 2.03 µM)
CN1CCN(c2ccc(C3=C4C5CC(C)(C)CC[C@]5(C(=O)O)CC[C@@]4(C)[C@]4(C)CCC5C(C)(C)c6n[nH]c(N)c6C[C@]5(C)C4C3)cc2)CC1 (stereo partly drawn) [Example 53, (4aS,6aS,6bR,13aR)-12-Amino-2,2,6a,6b,9,9,13a-heptamethyl-15-(4-(4-methylpiperazin-1-yl)phenyl)-2,3,4,4a,5,6,6a,6b,7,8,8a,9,11,13,13a,13b,14,15b-octadecahydro-1H-chryseno[1,2-f]indazole-4-a-carboxylic acid] | 0.5 µg/mL | 2 µg/mL | – | –
CN1CCN(c2c([C@]34CCC(C)(C)CC3C3=CCC5[C@@]6(C)Cc7c(n[nH]c7N)C(C)(C)C6CC[C@@]5(C)[C@]3(C)CC4)n[nH]c2O)CC1 (stereo partly drawn) [Compound 89, 3-((4aS,6aS,6bR,13aR)-12-Amino-2,2,6a,6b,9,9,13a-heptamethyl-2,3,4,4a,5,6,6a,6b,7,8,8a,9,11,13,13a,13b,14,15b-octadecahydro-1H-chryseno[1,2-f]indazol-4-a-yl)-4-(4-methylpiperazin-1-yl)-1H-pyrazol-5-ol] | 1 µg/mL | 1 µg/mL | – | –
CC1(C)CC[C@]2(C(=O)O)CC[C@]3(C)C(=C(c4ccccc4N)CC4[C@@]5(C)Cc6c(n[nH]c6N)C(C)(C)C5CC[C@]43C)C2C1 (stereo partly drawn) [Example 23, (4aS,6aS,6bR,13aR)-12-Amino-15-(2-aminophenyl)-2,2,6a,6b,9,9,13a-heptamethyl-2,3,4,4a,5,6,6a,6b,7,8,8a,9,11,13,13a,13b,14,15b-octadecahydro-1H-chryseno[1,2-f]indazole-4-a-carboxylic acid] | – | – | 1 µg/mL (≈ 1.71 µM) | 2 µg/mL (≈ 3.42 µM)
CC1(C)CC[C@]2(C(=O)O)CC[C@]3(C)C(=C(c4ccc(N)c(F)c4)CC4[C@@]5(C)Cc6c(n[nH]c6N)C(C)(C)C5CC[C@]43C)C2C1 (stereo partly drawn) [Example 31, (4aS,6aS,6bR,13aR)-12-Amino-15-(4-amino-3-fluorophenyl)-2,2,6a,6b,9,9,13a-heptamethyl-2,3,4,4a,5,6,6a,6b,7,8,8a,9,11,13,13a,13b,14,15b-octadecahydro-1H-chryseno[1,2-f]indazole-4-a-carboxylic acid] | 0.5 µg/mL | 1 µg/mL | – | –
CC1(C)CC[C@]2(C(=O)O)CC[C@]3(C)C(=C(c4ccncc4)CC4[C@@]5(C)Cc6c(n[nH]c6N)C(C)(C)[C@@H]5CC[C@]43C)[C@@H]2C1 (stereo partly drawn) [Example 29, (4aS,6aS,6bR,8aR,13aR,15bS)-12-Amino-2,2,6a,6b,9,9,13a-heptamethyl-15-(pyridin-4-yl)-2,3,4,4a,5,6,6a,6b,7,8,8a,9,11,13,13a,13b,14,15b-octadecahydro-1H-chryseno[1,2-f]indazole-4-a-carboxylic acid] | 1 µg/mL | 1 µg/mL | – | –
CC1(C)CC[C@]2(C(=O)O)CC[C@]3(C)C(=C(c4ccc(N5CCOCC5)cc4)CC4[C@@]5(C)Cc6c(n[nH]c6N)C(C)(C)C5CC[C@]43C)C2C1 (stereo partly drawn) [Example 51, (4aS,6aS,6bR,13aR)-12-Amino-2,2,6a,6b,9,9,13a-heptamethyl-15-(4-morpholinophenyl)-2,3,4,4a,5,6,6a,6b,7,8,8a,9,11,13,13a,13b,14,15b-octadecahydro-1H-chryseno[1,2-f]indazole-4-a-carboxylic acid] | 0.5 µg/mL | 2 µg/mL | – | –
CC1(C)CC[C@]2(C(=O)O)CC[C@]3(C)C(=C(c4ccc5c(c4)CCN5)CC4[C@@]5(C)Cc6c(n[nH]c6N)C(C)(C)[C@@H]5CC[C@]43C)[C@@H]2C1 (stereo partly drawn) [Example 11, (4aS,6aS,6bR,13aR)-12-Amino-15-(indolin-5-yl)-2,2,6a,6b,9,9,13a-heptamethyl-2,3,4,4a,5,6,6a,6b,7,8,8a,9,11,13,13a,13b,14,15b-octadecahydro-1H-chryseno[1,2-f]indazole-4-a-carboxylic acid] | – | – | 0.5 µg/mL (≈ 0.818 µM) | 0.5 µg/mL (≈ 0.818 µM)
CN(C)CCc1c([C@]23CCC(C)(C)CC2C2=CCC4[C@@]5(C)Cc6c(n[nH]c6N)C(C)(C)C5CC[C@@]4(C)[C@]2(C)CC3)n[nH]c1O (stereo partly drawn) [Compound 85, 3-((4aS,6aS,6bR,13aR)-12-Amino-2,2,6a,6b,9,9,13a-heptamethyl-2,3,4,4a,5,6,6a,6b,7,8,8a,9,11,13,13a,13b,14,15b-octadecahydro-1H-chryseno[1,2-f]indazol-4-a-yl)-4-(2-(dimethylamino)ethyl)-1H-pyrazol-5-ol] | 0.5 µg/mL | 1 µg/mL | – | –
